Experiments:
[1] = target: T1, CK2α (Homo sapiens, UniProt P68400); experiment: Biochemical assay for inhibitors of CK2α kinase activity (ADP-Glo); settings: 0.2 nM CK2α, 50 μM peptide substrate, 15 μM ATP, read-out: Assay 1: CK2α Enzyme IC50
T1 construct: CK2α (residues 2-329) was produced in Escherichia coli BL21 (DE3) for kinase activity screening; His6 (N, cleaved yes); made in house; host or cells: Escherichia coli BL21 (DE3)
T1 sequence (P68400 2-329): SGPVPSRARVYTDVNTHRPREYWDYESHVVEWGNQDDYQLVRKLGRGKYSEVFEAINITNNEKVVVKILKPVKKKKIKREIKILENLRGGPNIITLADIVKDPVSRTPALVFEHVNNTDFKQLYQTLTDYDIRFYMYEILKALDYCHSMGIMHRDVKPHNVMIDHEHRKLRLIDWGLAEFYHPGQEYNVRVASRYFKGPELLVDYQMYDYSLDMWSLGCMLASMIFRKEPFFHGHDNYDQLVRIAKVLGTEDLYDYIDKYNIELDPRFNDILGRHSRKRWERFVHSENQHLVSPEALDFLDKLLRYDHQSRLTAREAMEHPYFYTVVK

[2] = target: T2, CLK2 (Homo sapiens, UniProt P49760); experiment: Biochemical assay for inhibitors of CLK2 kinase activity (ADP-Glo); settings: 20 nM CLK2, 50 μM peptide substrate, 100 μM ATP, read-out: Assay 2: CLK2 Enzyme IC50
T2 construct: purchased Carna Biosciences 04-127
T2 sequence (P49760 whole entry): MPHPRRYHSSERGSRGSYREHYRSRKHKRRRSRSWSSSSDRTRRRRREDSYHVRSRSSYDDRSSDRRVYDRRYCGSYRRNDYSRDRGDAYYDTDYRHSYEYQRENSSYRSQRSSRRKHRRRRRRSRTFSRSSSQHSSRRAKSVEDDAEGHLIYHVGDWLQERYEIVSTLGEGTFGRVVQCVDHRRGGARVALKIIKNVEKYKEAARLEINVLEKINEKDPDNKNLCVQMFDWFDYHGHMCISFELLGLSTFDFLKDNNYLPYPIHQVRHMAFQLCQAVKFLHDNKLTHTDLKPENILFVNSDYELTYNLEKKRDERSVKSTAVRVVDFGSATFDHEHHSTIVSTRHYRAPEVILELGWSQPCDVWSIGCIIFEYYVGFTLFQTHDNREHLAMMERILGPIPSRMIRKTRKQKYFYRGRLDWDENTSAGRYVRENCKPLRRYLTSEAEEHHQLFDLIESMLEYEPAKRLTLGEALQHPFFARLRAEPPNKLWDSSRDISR

[3] = target: T3, intracellular CK2α (Homo sapiens, UniProt P19784); experiment: Cell-based NanoBRET assay for inhibitor binding to intracellular CK2α; settings: HCT116 cells transiently transfected with CSNK2A2-NanoLuc fusion vector; Tracer K-5; 2 h; read-out: Assay 3: NanoBRET ™ assay for binding to intracellular CK2α
T3 construct: host or cells: HCT116 (ATCC CCL-247)
T3 sequence (P19784 whole entry, the tested form may be a part): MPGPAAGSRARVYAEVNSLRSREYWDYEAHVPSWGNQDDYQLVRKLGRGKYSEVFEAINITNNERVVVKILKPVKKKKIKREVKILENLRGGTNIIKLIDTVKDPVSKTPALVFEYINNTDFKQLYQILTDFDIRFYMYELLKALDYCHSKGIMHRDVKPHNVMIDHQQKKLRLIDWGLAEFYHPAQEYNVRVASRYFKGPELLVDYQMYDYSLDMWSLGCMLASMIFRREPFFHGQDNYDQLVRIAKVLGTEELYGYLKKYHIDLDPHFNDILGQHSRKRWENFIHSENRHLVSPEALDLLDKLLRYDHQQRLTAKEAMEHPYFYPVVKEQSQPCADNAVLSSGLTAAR
Procedure, shortened: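 Living cells expressing NanoLuc-CK2α fusion were given a fixed tracer concentration, and compounds competitively displaced the reversibly bound tracer. Donor (450 nm) and acceptor (610 or 630 nm) emissions were read; BRET ratio = (acceptor/donor)×1,000, giving apparent intracellular affinity.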

| SMILES | IC50 [1] [nM] | IC50 [2] [nM] | IC50 [3] [nM] |
| --- | --- | --- | --- |
| O=C(CCNCc1ccc(C2CC2)c(CO)c1)NCCCNc1cc(-n2cnnc2)cc2[nH]ncc12 [Example 77, N-(3-((6-(4H-1,2,4-triazol-4-yl)-1H-indazol-4-yl)amino)propyl)-3-((4-cyclopropyl-3-(hydroxymethyl)benzyl)amino)propanamide] | 5.71 | 95.7 | > 50000 |
| c1cc2[nH]c(CNCCCCOCCNc3cc(-n4cnnc4)cc4[nH]ncc34)cc2cc1OC1CCC1 [Example 53, N-(2-(4-(((5-cyclobutoxy-1H-indol-2-yl)methyl)amino)butoxy)ethyl)-6-(4H-1,2,4-triazol-4-yl)-1H-indazol-4-amine] | 0.33 | 119 | 159 |
| FC(F)(F)Oc1ccc(CNCCCCOCCOc2cc(-c3ccnnc3)cc3[nH]nnc23)cc1Cl [Example 102, N-(3-chloro-4-(trifluoromethoxy)benzyl)-4-(2-((6-(pyridazin-4-yl)-1H-benzo[d][1,2,3]triazol-4-yl)oxy)ethoxy)butan-1-amine] | 393 | 43000 | > 50000 |
| N#CCc1cc(CNCCCCOC2CN(c3cc(-c4ccnnc4)cc4[nH]nnc34)C2)cc(OC(F)(F)F)c1 [Example 151, 2-(3-(((4-((1-(6-(pyridazin-4-yl)-1H-benzo[d][1,2,3]triazol-4-yl)azetidin-3-yl)oxy)butyl)amino)methyl)-5-(trifluoromethoxy)phenyl)acetonitrile] | 187 | 39800 | 19300 |
| Fc1cc(CNCCCCOC2CN(c3cc(-c4cnoc4)cc4[nH]ncc34)C2)ccc1OC(F)(F)F [Example 135, N-(3-fluoro-4-(trifluoromethoxy)benzyl)-4-((1-(6-(isoxazol-4-yl)-1H-indazol-4-yl)azetidin-3-yl)oxy)butan-1-amine] | 13.3 | 230 | 1830 |
| FC(F)(F)Oc1ccc(CNCCCCOCCOc2cc(-n3cnnc3)cc3[nH]nnc23)cc1Cl [Example 123, 4-(2-((6-(4H-1,2,4-triazol-4-yl)-1H-benzo[d][1,2,3]triazol-4-yl)oxy)ethoxy)-N-(3-chloro-4-(trifluoromethoxy)benzyl)butan-1-amine] | 306 | 44700 | > 50000 |
| N#CCc1cc(F)cc(CNCCCCOC2CN(c3cc(-c4ccnnc4)cc4[nH]ncc34)C2)c1 [Example 113, 2-(3-fluoro-5-(((4-((1-(6-(pyridazin-4-yl)-1H-indazol-4-yl)azetidin-3-yl)oxy)butyl)amino)methyl)phenyl)acetonitrile] | 67.5 | 2710 | 8090 |
| OCc1cc(CNCCCCOC2CN(c3cc(-c4cnoc4)cc4[nH]ncc34)C2)cc(C(F)(F)F)c1 [Example 120, (3-(((4-((1-(6-(isoxazol-4-yl)-1H-indazol-4-yl)azetidin-3-yl)oxy)butyl)amino)methyl)-5-(trifluoromethyl)phenyl)methanol] | 84.6 | 141 | 3250 |
| O=C(O)Cc1cc(NCCOCCCCNCc2cc(F)c(OC(F)(F)F)c(F)c2)c2cn[nH]c2c1 [Example 198, 2-(4-((2-(4-((3,5-difluoro-4-(trifluoromethoxy)benzyl)amino)butoxy)ethyl)amino)-1H-indazol-6-yl)acetic acid] | 72.6 | > 50000 | > 3000 |
| N#CCc1cc(CNCCCCOC2CN(c3cc(-c4cnoc4)cc4[nH]ncc34)C2)cc(C(F)(F)F)c1 [Example 145, 2-(3-(((4-((1-(6-(isoxazol-4-yl)-1H-indazol-4-yl)azetidin-3-yl)oxy)butyl)amino)methyl)-5-(trifluoromethyl)phenyl)acetonitrile] | 25.4 | 186 | 1730 |
| N#CCc1cc(NCCOCCCCNCc2cc(CO)cc(OC(F)(F)F)c2)c2cn[nH]c2c1 [Example 204, 2-(4-((2-(4-((3-(hydroxymethyl)-5-(trifluoromethoxy)benzyl)amino)butoxy)ethyl)amino)-1H-indazol-6-yl)acetonitrile] | 46.2 | 3440 | 405 |
| O=C(CCNCc1ccc(OC(F)(F)F)c(Cl)c1)NCCCNc1cc(-c2ncon2)cc2[nH]ncc12 [Example 189, N-(3-((6-(1,2,4-oxadiazol-3-yl)-1H-indazol-4-yl)amino)propyl)-3-((3-chloro-4-(trifluoromethoxy)benzyl)amino)propanamide] | 19.2 | 3500 | 1630 |
| c1cc(-c2cc(NCCOCCCCNCc3cc4cc(OC5CCC5)ccc4[nH]3)c3cn[nH]c3c2)cnn1 [Example 57, N-(2-(4-(((5-cyclobutoxy-1H-indol-2-yl)methyl)amino)butoxy)ethyl)-6-(pyridazin-4-yl)-1H-indazol-4-amine] | 0.6 | 781 | 69.8 |
| c1cc2[nH]c(CNCCCCOCCOc3cc(-c4cnoc4)cc4[nH]ncc34)cc2cc1OC1CCC1 [Example 54, N-((5-cyclobutoxy-1H-indol-2-yl)methyl)-4-(2-((6-(isoxazol-4-yl)-1H-indazol-4-yl)oxy)ethoxy)butan-1-amine] | 1.44 | 217 | 128 |

Second part, the compound after the results:

| IC50 [1] [nM] | IC50 [2] [nM] | IC50 [3] [nM] | SMILES |
| --- | --- | --- | --- |
| 0.76 | 787 | 106 | O=C(CCNCc1ccc(OC(F)(F)F)c(Cl)c1)NCCCNc1cc(-c2ccncc2)nc2[nH]ncc12 [Example 185, 3-((3-chloro-4-(trifluoromethoxy)benzyl)amino)-N-(3-((6-(pyridin-4-yl)-1H-pyrazolo[3,4-b]pyridin-4-yl)amino)propyl)propanamide] |
| 0.33 | 407 | 5090 | O=C(CCNCc1ccc(-c2ccccc2)c(Cl)c1)NCCCNc1cc(-c2nn[nH]n2)cc2[nH]ncc12 [Example 79, N-(3-((6-(2H-tetrazol-5-yl)-1H-indazol-4-yl)amino)propyl)-3-(((2-chloro-[1,1′-biphenyl]-4-yl)methyl)amino)propanamide] |
| 2.15 | 306 | 240 | O=C(CCNCc1ccc(OC(F)(F)F)c(Cl)c1)NCCCNc1cc(-c2ccncc2)cc2[nH]ncc12 [Example 5, 3-((3-Chloro-4-(trifluoromethoxy)benzyl)amino)-N-(3-((6-(pyridin-4-yl)-1H-indazol-4-yl)amino)propyl)propanamide] |
| 0.25 | 69.8 | 146 | N#Cc1n[nH]cc1-c1cc(NCCCNC(=O)CCNCc2ccc(-c3ccccc3)c(Cl)c2)c2cn[nH]c2c1 [Example 7, 3-(((2-chloro-[1,1′-biphenyl]-4-yl)methyl)amino)-N-(3-((6-(3-cyano-1H-pyrazol-4-yl)-1H-indazol-4-yl)amino)propyl)propanamide] |
| 3.68 | 190 | 100 | O=C(CCNCc1ccc(OC(F)(F)F)c(Cl)c1)NCCCNc1cc(-c2ccncc2)c(F)c2[nH]ncc12 [Example 180, 3-((3-chloro-4-(trifluoromethoxy)benzyl)amino)-N-(3-((7-fluoro-6-(pyridin-4-yl)-1H-indazol-4-yl)amino)propyl)propanamide] |
| 1.21 | 355 | 87.1 | C[C@@H](CCCOCCNc1cc(-c2cnnc(O)c2)cc2[nH]ncc12)NCc1cc(CO)cc(OC(F)(F)F)c1 [Example 193, (S)-5-(4-((2-((4-((3-(hydroxymethyl)-5-(trifluoromethoxy)benzyl)amino)pentyl)oxy)ethyl)amino)-1H-indazol-6-yl)pyridazin-3-ol] |
